{"source": "ChEMBL document CHEMBL3132769", "about": "“Fragment growing to retain or alter the selectivity of anchored kinase hinge-binding fragments” (Medchemcomm, 2014)", "key": {"[1]": {"molecular_target": "Ribosomal protein S6 kinase alpha-5 (Homo sapiens) (UniProt O75582)", "sequence (O75582 whole entry, looked up)": "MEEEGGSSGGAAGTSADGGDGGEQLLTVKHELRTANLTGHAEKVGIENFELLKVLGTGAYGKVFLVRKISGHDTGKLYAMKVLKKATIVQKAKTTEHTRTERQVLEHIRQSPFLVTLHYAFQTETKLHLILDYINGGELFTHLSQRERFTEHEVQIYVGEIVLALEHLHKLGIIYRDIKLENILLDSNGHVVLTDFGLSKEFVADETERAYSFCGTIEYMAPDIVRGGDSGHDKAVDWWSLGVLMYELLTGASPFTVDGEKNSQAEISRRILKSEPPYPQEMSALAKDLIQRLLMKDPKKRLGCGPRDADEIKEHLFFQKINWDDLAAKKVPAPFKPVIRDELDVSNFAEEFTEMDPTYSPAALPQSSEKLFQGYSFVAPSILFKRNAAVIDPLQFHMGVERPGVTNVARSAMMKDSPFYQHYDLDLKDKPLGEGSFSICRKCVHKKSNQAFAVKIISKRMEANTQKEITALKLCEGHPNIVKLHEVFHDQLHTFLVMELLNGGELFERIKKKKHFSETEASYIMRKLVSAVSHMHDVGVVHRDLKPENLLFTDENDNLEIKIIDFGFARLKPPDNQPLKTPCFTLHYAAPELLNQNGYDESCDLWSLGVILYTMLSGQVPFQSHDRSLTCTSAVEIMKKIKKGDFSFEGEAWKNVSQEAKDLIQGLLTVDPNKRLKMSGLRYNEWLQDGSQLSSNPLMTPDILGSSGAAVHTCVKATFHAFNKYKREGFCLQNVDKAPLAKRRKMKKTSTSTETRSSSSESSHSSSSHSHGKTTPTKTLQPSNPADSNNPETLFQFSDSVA", "assay": "Inhibition of human full length MSK1 expressed in baculovirus assessed as substrate phosphorylation using fluorescence-labelled peptides as substrate at 0.2 uM after 90 mins by microfluidic peptide phosphorylation assay"}, "Homo sapiens": {"species_on_record": "Homo sapiens", "assay": "Inhibition of human full length PKA expressed in baculovirus assessed as substrate phosphorylation using fluorescence-labelled peptides as substrate at 420 uM after 90 mins by microfluidic peptide phosphorylation assay"}, "[2]": {"molecular_target": "Insulin-like growth factor 1 receptor (Homo sapiens) (UniProt P08069)", "assay": "Inhibition of human IGF1R catalytic domain expressed in baculovirus assessed as substrate phosphorylation using fluorescence-labelled peptides as substrate at 420 uM after 90 mins by microfluidic peptide phosphorylation assay"}, "[3]": {"molecular_target": "T1, Testis-specific serine/threonine-protein kinase 2 (Homo sapiens) (UniProt Q96PF2)", "T1 sequence (whole entry)": "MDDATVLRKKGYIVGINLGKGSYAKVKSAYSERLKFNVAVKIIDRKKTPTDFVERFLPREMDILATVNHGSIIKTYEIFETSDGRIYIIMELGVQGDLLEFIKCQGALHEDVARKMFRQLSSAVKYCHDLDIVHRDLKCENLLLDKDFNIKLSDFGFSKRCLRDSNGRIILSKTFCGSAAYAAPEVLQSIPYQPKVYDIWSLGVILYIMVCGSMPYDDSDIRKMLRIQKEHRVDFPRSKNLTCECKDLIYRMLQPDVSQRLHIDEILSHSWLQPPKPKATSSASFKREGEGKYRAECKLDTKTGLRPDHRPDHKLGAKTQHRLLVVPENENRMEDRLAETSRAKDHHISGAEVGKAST", "assay": "Inhibition of human full length TSSK2 expressed in baculovirus assessed as substrate phosphorylation using fluorescence-labelled peptides as substrate at 2 uM after 90 mins by microfluidic peptide phosphorylation assay"}, "[4]": {"molecular_target": "T2, Serine/threonine-protein kinase D1 (Homo sapiens) (UniProt Q15139)", "T2 sequence (whole entry)": "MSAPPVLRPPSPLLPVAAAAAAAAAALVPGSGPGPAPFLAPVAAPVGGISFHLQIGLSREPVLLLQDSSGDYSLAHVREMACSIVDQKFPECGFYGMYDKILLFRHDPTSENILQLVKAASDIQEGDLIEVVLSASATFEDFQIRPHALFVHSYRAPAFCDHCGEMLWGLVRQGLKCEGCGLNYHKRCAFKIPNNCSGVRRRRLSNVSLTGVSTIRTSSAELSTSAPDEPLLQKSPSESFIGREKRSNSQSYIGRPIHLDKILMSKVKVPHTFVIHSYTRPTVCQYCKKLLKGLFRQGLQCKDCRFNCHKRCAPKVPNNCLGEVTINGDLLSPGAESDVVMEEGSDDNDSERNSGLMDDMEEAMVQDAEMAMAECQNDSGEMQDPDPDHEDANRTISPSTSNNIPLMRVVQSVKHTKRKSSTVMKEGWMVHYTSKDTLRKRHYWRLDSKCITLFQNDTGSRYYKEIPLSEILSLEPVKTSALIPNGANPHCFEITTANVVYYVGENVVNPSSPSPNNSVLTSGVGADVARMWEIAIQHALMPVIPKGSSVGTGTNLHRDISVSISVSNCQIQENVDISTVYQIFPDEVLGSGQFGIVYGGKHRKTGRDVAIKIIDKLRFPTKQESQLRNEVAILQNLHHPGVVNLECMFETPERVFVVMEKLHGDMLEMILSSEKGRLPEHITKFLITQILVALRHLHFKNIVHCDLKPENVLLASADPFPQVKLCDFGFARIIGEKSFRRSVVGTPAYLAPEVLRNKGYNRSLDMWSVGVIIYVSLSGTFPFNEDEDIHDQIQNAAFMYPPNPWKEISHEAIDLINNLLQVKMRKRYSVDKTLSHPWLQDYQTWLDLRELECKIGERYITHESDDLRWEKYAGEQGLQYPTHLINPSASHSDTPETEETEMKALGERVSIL", "assay": "Inhibition of human full length PKD1 expressed in baculovirus assessed as substrate phosphorylation using fluorescence-labelled peptides as substrate at 0.1 uM after 90 mins by microfluidic peptide phosphorylation assay"}, "[5]": {"molecular_target": "Aurora kinase B (Homo sapiens) (UniProt Q96GD4)", "sequence (Q96GD4 whole entry)": "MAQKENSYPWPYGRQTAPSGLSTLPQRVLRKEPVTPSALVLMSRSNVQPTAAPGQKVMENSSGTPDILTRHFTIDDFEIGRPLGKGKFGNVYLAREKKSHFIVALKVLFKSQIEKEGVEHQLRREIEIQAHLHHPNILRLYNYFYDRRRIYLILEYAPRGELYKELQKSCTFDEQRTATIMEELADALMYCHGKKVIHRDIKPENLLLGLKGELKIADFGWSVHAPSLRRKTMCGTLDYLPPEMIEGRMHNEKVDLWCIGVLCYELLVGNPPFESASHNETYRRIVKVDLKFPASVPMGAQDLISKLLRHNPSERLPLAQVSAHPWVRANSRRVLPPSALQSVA", "assay": "Inhibition of human full length AurB expressed in baculovirus assessed as substrate phosphorylation using fluorescence-labelled peptides as substrate at […] after 90 mins by microfluidic peptide phosphorylation assay"}, "[6]": {"molecular_target": "Ribosomal protein S6 kinase alpha-3 (Homo sapiens) (UniProt P51812)", "sequence (P51812 whole entry)": "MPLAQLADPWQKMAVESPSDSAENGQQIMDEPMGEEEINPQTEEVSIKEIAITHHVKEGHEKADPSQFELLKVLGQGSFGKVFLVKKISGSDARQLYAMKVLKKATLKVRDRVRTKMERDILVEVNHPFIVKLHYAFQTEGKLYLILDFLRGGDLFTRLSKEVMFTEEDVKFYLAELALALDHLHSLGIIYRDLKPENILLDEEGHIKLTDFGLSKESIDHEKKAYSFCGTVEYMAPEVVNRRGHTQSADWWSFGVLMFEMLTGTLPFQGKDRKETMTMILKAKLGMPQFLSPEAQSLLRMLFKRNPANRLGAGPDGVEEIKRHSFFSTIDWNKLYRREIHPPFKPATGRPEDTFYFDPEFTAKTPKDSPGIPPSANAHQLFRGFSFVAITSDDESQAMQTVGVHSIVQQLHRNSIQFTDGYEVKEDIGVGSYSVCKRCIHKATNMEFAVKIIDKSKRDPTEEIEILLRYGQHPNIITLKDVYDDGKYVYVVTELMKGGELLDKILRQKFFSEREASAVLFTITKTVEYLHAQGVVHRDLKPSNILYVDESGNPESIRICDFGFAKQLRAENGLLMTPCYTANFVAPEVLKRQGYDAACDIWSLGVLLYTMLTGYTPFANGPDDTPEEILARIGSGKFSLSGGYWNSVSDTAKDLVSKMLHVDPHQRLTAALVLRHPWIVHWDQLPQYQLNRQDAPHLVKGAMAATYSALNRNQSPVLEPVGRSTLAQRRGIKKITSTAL", "assay": "Inhibition of human full length RSK2 expressed in baculovirus assessed as substrate phosphorylation using fluorescence-labelled peptides as substrate at […] after 90 mins by microfluidic peptide phosphorylation assay"}, "[7]": {"molecular_target": "T3, Calcium/calmodulin-dependent protein kinase type IV (Homo sapiens) (UniProt Q16566)", "T3 sequence (whole entry)": "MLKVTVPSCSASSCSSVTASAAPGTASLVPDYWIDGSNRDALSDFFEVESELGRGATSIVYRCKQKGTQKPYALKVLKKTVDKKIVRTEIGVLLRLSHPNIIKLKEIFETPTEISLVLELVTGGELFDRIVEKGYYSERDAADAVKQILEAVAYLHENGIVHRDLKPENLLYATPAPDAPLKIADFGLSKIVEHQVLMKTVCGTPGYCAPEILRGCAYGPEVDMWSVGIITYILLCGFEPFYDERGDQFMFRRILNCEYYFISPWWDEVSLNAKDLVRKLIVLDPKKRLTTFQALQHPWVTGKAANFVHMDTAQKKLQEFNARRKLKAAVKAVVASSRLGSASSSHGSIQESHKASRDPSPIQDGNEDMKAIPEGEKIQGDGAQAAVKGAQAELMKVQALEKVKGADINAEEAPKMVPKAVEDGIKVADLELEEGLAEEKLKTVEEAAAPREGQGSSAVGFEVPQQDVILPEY", "assay": "Inhibition of human full length CAMK4 expressed in baculovirus assessed as substrate phosphorylation using fluorescence-labelled peptides as substrate at 0.06 uM after 90 mins by microfluidic peptide phosphorylation assay"}, "[8]": {"test_system": "Fibroblast growth factor receptor 2 (Homo sapiens), P21802 [N549H]", "sequence (P21802 whole entry N549H, the tested form may be a part)": "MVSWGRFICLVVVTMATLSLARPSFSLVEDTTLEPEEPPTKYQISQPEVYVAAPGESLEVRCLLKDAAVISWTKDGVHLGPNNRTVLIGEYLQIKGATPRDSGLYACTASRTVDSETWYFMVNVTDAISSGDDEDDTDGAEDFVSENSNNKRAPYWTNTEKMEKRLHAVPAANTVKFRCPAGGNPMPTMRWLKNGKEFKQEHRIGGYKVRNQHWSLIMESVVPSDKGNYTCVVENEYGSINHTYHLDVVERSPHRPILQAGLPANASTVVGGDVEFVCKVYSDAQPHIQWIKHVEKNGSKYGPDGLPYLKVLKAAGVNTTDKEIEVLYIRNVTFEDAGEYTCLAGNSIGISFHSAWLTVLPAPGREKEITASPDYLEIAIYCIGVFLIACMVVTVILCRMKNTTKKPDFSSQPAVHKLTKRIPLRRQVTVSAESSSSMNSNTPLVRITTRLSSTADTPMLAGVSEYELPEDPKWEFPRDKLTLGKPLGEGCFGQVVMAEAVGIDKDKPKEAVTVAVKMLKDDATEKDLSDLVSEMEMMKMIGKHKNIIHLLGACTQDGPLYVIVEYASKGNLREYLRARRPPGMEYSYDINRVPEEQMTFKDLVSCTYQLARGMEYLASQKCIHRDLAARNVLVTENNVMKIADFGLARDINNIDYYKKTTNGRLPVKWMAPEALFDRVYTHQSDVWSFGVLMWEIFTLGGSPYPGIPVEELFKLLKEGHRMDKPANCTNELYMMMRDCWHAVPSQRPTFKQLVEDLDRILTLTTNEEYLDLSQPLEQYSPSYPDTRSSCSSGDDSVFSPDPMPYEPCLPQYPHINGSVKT", "assay": "Inhibition of human FGFR2 N549H mutant catalytic domain expressed in baculovirus assessed as substrate phosphorylation using fluorescence-labelled peptides as substrate at 1000 uM after 90 mins by microfluidic peptide phosphorylation assay"}}, "data": [{"molecule": "Clc1ccc(C2(c3ccc(-c4ncnc5[nH]cnc45)cc3)CCNCC2)cc1", "values": [{"measurement": "inhibition", "setting": "[1]", "value": 90, "unit": "%"}]}, {"molecule": "c1nc(N2CCOCC2)c2nc[nH]c2n1", "values": [{"measurement": "inhibition", "setting": "Homo sapiens", "value": 92.5, "unit": "%"}, {"measurement": "inhibition", "setting": "[2]", "value": 15, "unit": "%"}]}, {"molecule": "NC1CCN(c2ncnc3[nH]ccc23)CC1", "values": [{"measurement": "inhibition", "setting": "[3]", "value": 6.5, "unit": "%"}]}, {"molecule": "C[C@H](CN(C)C)Oc1nc(Nc2cc3cccc(Cl)c3cn2)cnc1C#N", "values": [{"measurement": "inhibition", "setting": "[4]", "value": 5, "unit": "%"}]}, {"molecule": "COC(=O)c1cnc(Nc2cnc(C#N)cn2)cc1NCC1CCNCC1", "values": [{"measurement": "inhibition", "setting": "[5]", "value": 4, "unit": "%"}, {"measurement": "inhibition", "setting": "[6]", "value": 42, "unit": "%"}]}, {"molecule": "NC1(Cc2ccc(Cl)cc2)CCN(c2ncnc3[nH]ccc23)CC1", "values": [{"measurement": "inhibition", "setting": "[7]", "value": 6, "unit": "%"}]}, {"molecule": "c1cnc2[nH]ccc2c1", "values": [{"measurement": "inhibition", "setting": "[8]", "value": 42, "unit": "%"}]}]}
